# Results as given in patent US9617602B2, “Methods and compositions for determining resistance to androgen receptor therapy” (Aragon Pharmaceuticals, Inc., priority 2012, dated 2017).
# Read-outs that look alike come from different tables or passages of the source.
# Tested on: prostate specific antigen (PSA)
# Type: in vivo
# From the text: Patients with mCRPC were assigned sequentially to dose levels in cohorts of 3 to 6 patients per dose level using standard 3×3 dose-escalation criteria.
# Eligible patients who signed informed consent documents were initially enrolled into a dose escalation cohort where they will receive a single oral dose of ARN-509 followed by a one-week observation period (PK Week). Continuous dosing began on Cycle 1 Day 1 assuming no unacceptable toxicities were observed.
# A minimum of 3 subjects at each dose level were monitored for a DLT through day 28 of Cycle 1.
# The starting dose was 30 mg/day, with escalations to 60 mg, 90 mg, 120 mg, 180 mg, 240 mg, 300 mg, 390 mg, and 480 mg daily. It was anticipated that these dose levels span the anticipated pharmacologically active dose range and be within the safety margin indicated by the preclinical toxicology results.
# Following the selection of 240 mg as the RP2D, additional eligible patients were enrolled in the Phase 2 portion of the study, consisting of 3 concurrent expansion cohorts at the MTD and/or RP2D to gather additional safety information and provide an initial signal of anti-tumor activity. The three expansion cohorts included:
# It was expected that each patient with mCRPC would receive at least 3 cycles (12 weeks) of continuous treatment and each patient with non-metastatic CRPC will receive at least 4 cycles (16 weeks) of continuous treatment. Treatment was discontinued at any time for protocol-defined disease progression or unacceptable toxicity. Tumor evaluations were performed every 3 cycles (12 weeks) for patients with mCRPC and every 4 cycles (16 weeks) for patients with non-metastatic CRPC. Safety was assessed from the first dose through at least four weeks after the last dose or until resolution of drug-related toxicity, or when toxicity is deemed irreversible, whichever was longer.
structure (smiles),measurement,setting,value
CNC(=O)c1ccc(N2C(=S)N(c3cnc(C#N)c(C(F)(F)F)c3)C(=O)C23CCC3)cc1F [ARN-509],"PSA, Patient 10",Cycle 4,102 % of TO
same,"PSA, Patient 13",Cycle 4,16.2 % of baseline
same,"PSA decline from baseline, Patient 7","Cycle 4, 8 and 10",> 90%
same,"PSA below study start, Patient 13",Cycle 11 and 12,> 60%
same,12 week PSA Response,Patient 1,30.49
same,PSA at Time of BEAMing Analysis [Percent of Baseline],"Patient 1, Treatment Cycle 19",195.4% of Baseline
same,12 week PSA Response,Patient 2,−61.8
same,PSA at Time of BEAMing Analysis [Percent of Baseline],"Patient 2, Treatment Cycle 10",337.08% of Baseline
same,12 week PSA Response,Patient 3,22.7
same,PSA at Time of BEAMing Analysis [Percent of Baseline],"Patient 3, Treatment Cycle 4",122% of Baseline
same,12 week PSA Response,Patient 4,12.4
same,PSA at Time of BEAMing Analysis [Percent of Baseline],"Patient 4, Treatment Cycle 5",134% of Baseline
same,12 week PSA Response,Patient 5,−70.65
same,PSA at Time of BEAMing Analysis [Percent of Baseline],"Patient 5, Treatment Cycle 8",16% of Baseline
same,12 week PSA Response,Patient 6,−90.02
same,PSA at Time of BEAMing Analysis [Percent of Baseline],"Patient 6, Treatment Cycle 10",84.6% of Baseline
same,12 week PSA Response,Patient 7,−98.6
same,PSA [Percent of Day 0],"Patient 7, Treatment Cycle 4",1.4% of Day 0
same,PSA [Percent of Day 0],"Patient 7, Treatment Cycle 8",3.3% of Day 0
same,PSA [Percent of Day 0],"Patient 7, Treatment Cycle 10",5.6% of Day 0
same,PSA [Percent of Day 0],"Patient 7, Treatment Cycle 15",41.2% of Day 0
same,PSA [Percent of Day 0],"Patient 7, Treatment Cycle 19",97.2% of Day 0
same,PSA [Percent of Day 0],"Patient 7, Treatment Cycle 22",281.0% of Day 0
same,PSA at Time of BEAMing Analysis [Percent of Baseline],"Patient 7, Treatment Cycle 22",281% of Baseline
same,12 week PSA Response,Patient 8,−62.2
same,PSA at Time of BEAMing Analysis [Percent of Baseline],"Patient 8, Treatment Cycle 16",10.2% of Baseline
same,12 week PSA Response,Patient 9,26.38
same,PSA at Time of BEAMing Analysis [Percent of Baseline],"Patient 9, Treatment Cycle 7",185% of Baseline
same,12 week PSA Response,Patient 10,2.33
same,PSA [Percent of Day 0],"Patient 10, Treatment Cycle 4",102% of Day 0
same,PSA [Percent of Day 0],"Patient 10, Treatment Cycle 7",245% of Day 0
same,PSA at Time of BEAMing Analysis [Percent of Baseline],"Patient 10, Treatment Cycle 7",245% of Baseline
same,12 week PSA Response,Patient 11,−49.76
same,PSA at Time of BEAMing Analysis [Percent of Baseline],"Patient 11, Treatment Cycle 8",143.88% of Baseline
same,12 week PSA Response,Patient 12,−56.65
same,PSA at Time of BEAMing Analysis [Percent of Baseline],"Patient 12, Treatment Cycle 7",99.47% of Baseline
same,12 week PSA Response,Patient 13,−83.79
same,PSA [Percent of Day 0],"Patient 13, Treatment Cycle 4",16.2% of Day 0
same,PSA [Percent of Day 0],"Patient 13, Treatment Cycle 11",31.7% of Day 0
same,PSA at Time of BEAMing Analysis [Percent of Baseline],"Patient 13, Treatment Cycle 11",31.7% of Baseline
same,PSA [Percent of Day 0],"Patient 13, Treatment Cycle 12",39.5% of Day 0
same,12 week PSA Response,Patient 14,−43.21
same,PSA at Time of BEAMing Analysis [Percent of Baseline],"Patient 14, Treatment Cycle 11",150.5% of Baseline
same,12 week PSA Response,Patient 15,164.14
same,PSA at Time of BEAMing Analysis [Percent of Baseline],"Patient 15, Treatment Cycle 3",220% of Baseline
same,12 week PSA Response,Patient 16,89.09
same,PSA at Time of BEAMing Analysis [Percent of Baseline],"Patient 16, Treatment Cycle 4",189% of Baseline
same,12 week PSA Response,Patient 17,−45.86
same,PSA at Time of BEAMing Analysis [Percent of Baseline],"Patient 17, Treatment Cycle 4",54.14% of Baseline
same,12 week PSA Response,Patient 18,−95.65
same,PSA at Time of BEAMing Analysis [Percent of Baseline],"Patient 18, Treatment Cycle 6",7.34% of Baseline
same,12 week PSA Response,Patient 19,−71.19
same,PSA at Time of BEAMing Analysis [Percent of Baseline],"Patient 19, Treatment Cycle 11",196.86% of Baseline
same,12 week PSA Response,Patient 20,−30.88
same,PSA at Time of BEAMing Analysis [Percent of Baseline],"Patient 20, Treatment Cycle 21",89.3% of Baseline
same,12 week PSA Response,Patient 21,−74.43
same,PSA at Time of BEAMing Analysis [Percent of Baseline],"Patient 21, Treatment Cycle 10",46.91% of Baseline
same,12 week PSA Response,Patient 22,−82.7
same,PSA at Time of BEAMing Analysis [Percent of Baseline],"Patient 22, Treatment Cycle 25",0.19% of Baseline
same,12 week PSA Response,Patient 23,97.78
same,PSA at Time of BEAMing Analysis [Percent of Baseline],"Patient 23, Treatment Cycle 8",222.46% of Baseline
same,12 week PSA Response,Patient 24,−74.86
same,PSA at Time of BEAMing Analysis [Percent of Baseline],"Patient 24, Treatment Cycle 25",4.89% of Baseline
same,12 week PSA Response,Patient 25,−30.07
same,PSA at Time of BEAMing Analysis [Percent of Baseline],"Patient 25, Treatment Cycle 12",161% of Baseline
same,12 week PSA Response,Patient 26,96.51
same,PSA at Time of BEAMing Analysis [Percent of Baseline],"Patient 26, Treatment Cycle 5",214.85% of Baseline
same,12 week PSA Response,Patient 27,−0.89
same,PSA at Time of BEAMing Analysis [Percent of Baseline],"Patient 27, Treatment Cycle 13",20.69% of Baseline
same,12 week PSA Response,Patient 28,−33.59
same,PSA at Time of BEAMing Analysis [Percent of Baseline],"Patient 28, Treatment Cycle 10",126% of Baseline
same,12 week PSA Response,Patient 29,−58.44
same,PSA at Time of BEAMing Analysis [Percent of Baseline],"Patient 29, Treatment Cycle 13",105% of Baseline
same,Patients exhibiting a 12 week ≧50% decline in PSA compared to baseline,across all dose groups,14/30
same,Recommended Phase 2 dose (RP2D),"human, in vivo, po, 28 days",240 mg
